What was measured:
MCF-7 cells = experiment: MTT colorimetric cytotoxicity assay on MCF-7 cells, single drugs and two-drug combinations, with combination index (CompuSyn); type: cell-based, Human; details: for type of drug interaction with Doxorubicin (combination index): MCF-7; for effect of the analog in combination with Doxorubicin on the anticancer activity of Doxorubicin: MCF-7, combination with Doxorubicin; for IC50: Homo sapiens, MCF7, read-out: IC50 concentration, which inhibits MCF-7 cell proliferation by 50% compared to control cells, single drug, MCF-7, 72 hours, MTT
Experimental: (§1) IC50 values were calculated using GraphPad Prism software.
(§2) This equation defines "Synergism" (CI < 1), "Additive effect" (CI = 1) and "Antagonism" (CI > 1).

A549 cells = experiment: MTT colorimetric cytotoxicity assay on A549 cells, single drugs and two-drug combinations, with combination index (CompuSyn); type: cell-based; details: Homo sapiens, A549, 72 hours, read-out: IC50 value for cancer cell survival
Experimental: The cancer cell lines (MCF-7, A549 and U-87MG) were cultured as monolayers in Dulbecco's modified Eagle's medium supplemented with 10% (v/v) fetal bovine serum and 1% (v/v) penicillin/streptomycin mixture (10,000 U/mL penicillin and 10 mg/mL streptomycin) in a 100% humidified atmosphere of 5% CO2 and 95% air at 37 °C. […] Cell cultures were kept in the exponential growth phase by regularly passaging cells three times a week with 0.25% trypsin/EDTA mixture.
The cytotoxic activity of the test compounds against cancer cell lines was tested using the standard MTT (3-(4,5-dimethylthiazol-2-yl)-2,5-diphenyltetrazolium bromide) colorimetric assay. […] Briefly, exponentially proliferating cells were seeded into each well of a 96-well microplate (about 5×10^3 cells/well). After 24 hours, test compounds at various concentrations were added to the respective wells, and the cells were incubated for another 72 hours. After incubating the cells with the test compounds, the medium was removed and MTT solution with a final concentration of 0.5 mg/mL was added. After 4 hours of incubation, the MTT solution was replaced with DMSO to dissolve the resulting violet formazan crystals in metabolically viable cells. Plates were gently shaken at room temperature until the formazan was completely dissolved and read at 540 nm using a microplate reader. […] The experiment was repeated at least three times under the same conditions. […] IC50 values were calculated using GraphPad Prism software. […] The test drugs were administered to the cells at the same time.
The combination index (CI) method - a dimensionless quantity used to determine and quantify the type of drug interaction - for binary combinations was calculated using CompuSyn software based on the equation: (CI)x = ((D)1)/((Dx)1) + ((D)2)/((Dx)2) = ((D)1)/((Dm)1 ([(fa)/((1−fa))])^((1)/(m1))) + ((D)2)/((Dm)2 ([(fa)/((1−fa))])^((1)/(m2))) [formula] […]
All data are expressed as mean±standard deviation (SD) and presented as a percentage of control (untreated cells) taken as 100%, n=3 (or more). […]

U-87MG cells = experiment: MTT colorimetric cytotoxicity assay on U-87MG cells, single drugs and two-drug combinations, with combination index (CompuSyn); type: cell-based, Human; details: for IC50: Homo sapiens, single drug, U-87MG, 72 hours, MTT, read-out: IC50 value (cell survival)
Experimental: Glimepiride and its analogs were first prepared as a stock solution in DMSO, and then the drugs were dissolved fresh in culture medium enriched with Tween 80 (final concentration 0.05%).
Human cancer cells (MCF-7, A549 and U-87MG) and normal endothelial cells (HMEC-1) were obtained from American Type Cell Culture (Rockville, MD). The cancer cell lines (MCF-7, A549 and U-87MG) were cultured as monolayers in Dulbecco's modified Eagle's medium supplemented with 10% (v/v) fetal bovine serum and 1% (v/v) penicillin/streptomycin mixture (10,000 U/mL penicillin and 10 mg/mL streptomycin) in a 100% humidified atmosphere of 5% CO2 and 95% air at 37 °C. Normal endothelial cells (HMEC-1) were cultured in MCDB 131 medium supplemented with 10% (v/v) fetal bovine serum, 10 ng/mL EGF, 1 µg/mL hydrocortisone and 1% (v/v) penicillin/streptomycin solution, in a humidified atmosphere of 5% CO2 and 95% air at 37 °C. Cell cultures were kept in the exponential growth phase by regularly passaging cells three times a week with 0.25% trypsin/EDTA mixture.
as §1, §2
All data are expressed as mean±standard deviation (SD) and presented as a percentage of control (untreated cells) taken as 100%, n=3 (or more). Sample size was estimated for Type I and Type II statistical errors of […], respectively. Normality of the data was checked with the Shapiro-Wilk test, and the homogeneity of variance was checked with the Levene or Brown-Forsythe test. The significance of differences between pairs of means was estimated using one-way ANOVA and Tukey's post-hoc test. For each analysis, the post-hoc power of the used tests was checked. Statistical power below 80% was considered a null result, and constructive conclusions were not made. All statistics were calculated using […] (StatSoft, USA) or GraphPad Prism software.

[1] = system: MDA-MB-231 breast carcinoma cells; details: Glibenclamide alone; inhibits G1-S phase progression without cell death or differentiation; cited from earlier work
[2] = Glimepiride analog 100-500 µM in combination with Doxorubicin 0.225, 0.450, 0.900 µM

| Compound | type of drug interaction with Doxorubicin (combination index) (MCF-7 cells; [2]) | effect of the analog in combination with Doxorubicin on the anticancer activity of Doxorubicin (MCF-7 cells) | further results |
| --- | --- | --- | --- |
| Cc1ccc(S(=O)(=O)NC(=O)NN2CCCCCC2)cc1 [Tolazamide, 1-(azepan-1-yl)-3-(4-methylphenyl)sulfonylurea] | strong or very strong synergy | beneficial effect |  |
| CCCCNC(=O)NS(=O)(=O)c1ccc(C)cc1 [Tolbutamide, 1-butyl-3-(4-methylphenyl)sulfonylurea] |  | beneficial effect |  |
| Cc1ccc(S(=O)(=O)NC(=O)NN2CC3CCCC3C2)cc1 (centres unmarked) [Gliclazide, 1-(3,3a,4,5,6,6a-hexahydro-1H-cyclopenta[c]pyrrol-2-yl)-3-(4-methylphenyl)sulfonylurea] | strong or very strong synergy | beneficial effect |  |
| CC(=O)O[C@@]12CO[C@@H]1C[C@H](O)[C@@]1(C)C(=O)[C@H](O)C3=C(C)[C@@H](OC(=O)[C@H](O)[C@@H](NC(=O)OC(C)(C)C)c4ccccc4)C[C@@](O)([C@@H](OC(=O)c4ccccc4)[C@H]21)C3(C)C [DOCE, [(1S,2S,3R,4S,7R,9S,10S,12R,15S)-4-acetyloxy-1,9,12 trihydroxy-15-[(2R,3S)-2-hydroxy-3-[(2-methylpropan-2-yl)oxycarbonylamino]-3 phenylpropanoyl]oxy-10,14,17,17-tetramethyl-11-oxo-6 oxatetracyclo[11.3.1.03,1 0.04, 7]heptadec-13-en-2-yl] benzoate] |  |  | IC50 (A549 cells): 150 nM; IC50 (MCF-7 cells): 240 nM; IC50 (U-87MG cells): 80 nM |
| COc1ccc2c(c1)C(=O)N(CCc1ccc(S(=O)(=O)NC(=O)NC3CCCCC3)cc1)C(=O)C2(C)C [Gliquidone] | not every combination of concentrations of Doxorubicin and Gliquidone produce a synergistic effect | beneficial effect | type of drug interaction with Doxorubicin (combination index) (MCF-7 cells; 100 µM analog in combination with Doxorubicin 0.225, 0.450, 0.900 µM): additive effect or slight antagonism; type of drug interaction with Doxorubicin (combination index) (MCF-7 cells; other dose combinations (analog above 100 µM) with Doxorubicin): synergistic effects |
| COc1ccc(Cl)cc1C(=O)NCCc1ccc(S(=O)(=O)NC(=O)NC2CCCCC2)cc1 [Glibenclamide] | strong or very strong synergy | beneficial effect | effect in MDA-MB-231 cells [1]: cytostatic effect |
| CCCCNC(=O)NS(=O)(=O)c1ccc(N)cc1 [Carbutamide] |  | beneficial effect |  |
| CCCCCOC(=O)Nc1nc(=O)n([C@@H]2O[C@H](C)[C@@H](O)[C@H]2O)cc1F [CAPE, pentyl N-[1-[(2R,3R,4S,5R)-3,4-dihydroxy-5-methyloxolan-2-yl]-5-fluoro-2-oxopyrimidin-4-yl]carbamate] |  |  | IC50 (A549 cells): 60 nM; IC50 (MCF-7 cells): 180 nM; IC50 (U-87MG cells): 40 nM |
| CCCNC(=O)NS(=O)(=O)c1ccc(Cl)cc1 [Chlorpropamide, 1-(4-chlorophenyl)sulfonyl-3-propylurea] | strong or very strong synergy | beneficial effect |  |
| COc1cccc2c1C(=O)c1c(O)c3c(c(O)c1C2=O)C[C@@](O)(C(=O)CO)C[C@@H]3O[C@H]1C[C@H](N)[C@H](O)[C@H](C)O1 [Doxorubicin, (7S,9S)-7-[(2R,4S,5S,6S)-4-amino-5-hydroxy-6 methyloxan-2-yl]oxy-6,9,11-trihydroxy-9-(2-hydroxyacetyl)-4-methoxy-8,10-dihydro-7H tetracene-5,12-dione] |  |  | U-87MG cell survival (U-87MG cells; 0.52 µM Doxorubicin alone): 75.6% |
| Cc1cnc(C(=O)NCCc2ccc(S(=O)(=O)NC(=O)NC3CCCCC3)cc2)cn1 [Glipizide, N-[2-[4-(cyclohexylcarbamoylsulfamoyl)phenyl]ethyl]-5-methylpyrazine-2-carboxamide] |  | beneficial effect |  |
| CCC1=C(C)CN(C(=O)NCCc2ccc(S(=O)(=O)NC(=O)NC3CCC(C)CC3)cc2)C1=O (centres unmarked) [Glimepiride, 4-ethyl-3-methyl-N-[2-[4-[(4-methylcyclohexyl)carbamoylsulfamoyl]phenyl]ethyl]-5-oxo-2H-pyrrole-1-carboxamide] |  |  | IC50 (A549 cells): 389000 ± 4490 nM; IC50 (MCF-7 cells): 186000 ± 7020 nM; IC50 (U-87MG cells): 149000 ± 12200 nM |
